Biological target: T1, CRTH2 (Homo sapiens, UniProt Q9Y5Y4)
T1 construct: expressed in transfected cells; host or cells: KB8 cells (human)
T1 sequence (Q9Y5Y4 1-395): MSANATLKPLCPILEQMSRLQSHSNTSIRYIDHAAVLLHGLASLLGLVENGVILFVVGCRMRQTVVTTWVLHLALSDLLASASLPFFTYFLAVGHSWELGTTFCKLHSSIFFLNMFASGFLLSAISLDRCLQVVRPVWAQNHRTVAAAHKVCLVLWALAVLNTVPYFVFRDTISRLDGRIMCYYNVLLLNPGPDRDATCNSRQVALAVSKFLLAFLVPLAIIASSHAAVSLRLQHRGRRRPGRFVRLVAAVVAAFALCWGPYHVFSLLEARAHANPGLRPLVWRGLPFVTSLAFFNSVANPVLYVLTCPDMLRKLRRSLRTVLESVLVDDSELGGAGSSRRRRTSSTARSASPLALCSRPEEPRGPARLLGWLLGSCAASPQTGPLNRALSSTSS
Test: CRTH2 antagonist test: inhibition of PGD2-induced intracellular calcium ion concentration increase in KB8 cells
Assay type: cell-based
Settings: KB8 cells (human cells expressing CRTH2); PGD2 final concentration 100 nM; Fluo-4-AM, FDSS6000
Experimental: The antagonist activity of the compound of the present invention was considered by using the intracellular calcium ion concentration increase reaction induced when the prostaglandin D2 was added to KB8 cells, which are human cells on which CRTH2 is expressed.
Fluo-4-AM (SIGMA, final concentration: 1 μM) was added to KB8 cells, and the cells were incubated at 37° C. for 30 minutes, washed with phosphate buffer (Invitrogen), and then suspended in Hank's balanced salt solution (Invitrogen) containing a reaction buffer solution (10 mM HEPES (Invitrogen), and 1 mM calcium chloride (SIGMA)). The suspension was dispensed in a 96 well plate (Nunc) so that 2×10^5 cells/well were placed, and the compound of the present invention and PGD2 (final concentration: 100 nM) were added. The fluorescence intensity thereof was measured over time by using FDSS6000 (Hamamatsu Photonics), and thus the maximum fluorescence intensity value “d” was obtained. The same procedure was carried out in the absence of the compound, and the maximum fluorescence intensity value “e” was obtained; and the same procedure was carried out in the absence of the compound and in […], and the maximum fluorescence intensity value “f” was obtained.
The calcium ion concentration increase inhibition rate of a compound was calculated by the following calculation equation:
Inhibitory rate(%)=[1−(d−f)/(e−f)]×100
That is to say, by using calcium ion concentration increase inhibitory rates of compounds to be tested having various concentrations, the IC50 value was calculated according to a dose-dependent inhibition curve analyzed by using XLfit (IDBS) as a data analysis software, and the value was defined as an indicator of the antagonist activity.

Row | SMILES | IC50 [nM]
1 | CC(c1ccc(C(=O)NCCc2ccc(Cl)cc2)cc1)c1ncc(CC(=O)O)c2ccccc12 (stereo not shown) [Example 1, {1-[1-(4-{[2-(4-chlorophenyl)ethyl]carbamoyl}phenyl)ethyl]isoquinolin-4-yl}acetic acid] | 4.4
2 | O=C(O)Cc1cnc(C(F)(F)c2ccc(C(=O)NCCc3ccc(Cl)cc3)cc2)c2ccccc12 [Example 2, {1-[(4-{[2-(4-chlorophenyl)ethyl]carbamoyl}phenyl)(difluoro)methyl]isoquinolin-4-yl}acetic acid] | 36
3 | COc1cc(Cc2ncc(CC(=O)O)c3ccccc23)ccc1C(=O)NCCc1ccc(Cl)cc1 [Example 3, [1-(4-{[2-(4-chlorophenyl)ethyl]carbamoyl}-3-methoxybenzyl)isoquinolin-4-yl]acetic acid] | 17
4 | O=C(O)Cc1cnc(Cc2ccc(C(=O)NCCc3ccc(Cl)cc3)cc2F)c2ccccc12 [Example 4, [1-(4-{[2-(4-chlorophenyl)ethyl]carbamoyl}-2-fluorobenzyl)isoquinolin-4-yl]acetic acid] | 15
5 | Cc1cc(Cc2ncc(CC(=O)O)c3ccccc23)ccc1C(=O)NCCc1ccc(Cl)cc1 [Example 5, [1-(4-{[2-(4-chlorophenyl)ethyl]carbamoyl}-3-methylbenzyl)isoquinolin-4-yl]acetic acid] | 42

Now from value to compound:

Row | IC50 [nM] | SMILES
6 | 8.7 | O=C(O)Cc1cnc(Cc2ccc(C(=O)NCCc3ccc(Cl)cc3)c(F)c2)c2ccccc12 [Example 6, [1-(4-{[2-(4-chlorophenyl)ethyl]carbamoyl}-3-fluorobenzyl)isoquinolin-4-yl]acetic acid]
7 | 14 | O=C(O)Cc1cnc(Cc2ccc(C(=O)NCCc3ccc(Cl)cc3)c(C(F)(F)F)c2)c2ccccc12 [Example 7, {1-[4-{[2-(4-chlorophenyl)ethyl]carbamoyl}-3-(trifluoromethyl)benzyl]isoquinolin-4-yl}acetic acid]

Source: patent publication US20130096310A1, “ISOQUINOLINE DERIVATIVE” (TAISHO PHARMACEUTICAL CO., LTD., priority 2010, published 2013)
